≈ marks a conversion by molar mass, not a printed value.
Columns and labels:
Streptococcus pyogenes [1] = assay: In vivo effective dose against experimental infections in rodent caused by Streptococcus pyogenes C203 when administered orally; type: functional; details: po
Streptococcus pyogenes [2] = assay: In vitro antimicrobial activity against Streptococcus pyogenes C203; type: functional
Haemophilus influenzae = assay: In vitro antimicrobial activity against Haemophilus influenzae.; type: functional
Streptococcus pyogenes [3] = assay: In vivo effective dose against experimental infections in rodent caused by Streptococcus pyogenes C203 when administered sc; type: functional
Streptococcus pneumoniae = assay: In vitro antimicrobial activity against Streptococcus pneumoniae; type: functional
Staphylococcus aureus = assay: In vitro antimicrobial activity against Staphylococcus aureus X1; type: functional
Enterococcus faecium = assay: In vitro antimicrobial activity against Streptococcus faecium X66; type: functional, streptococcus fae-cium
[4] = system: Staphylococcus epidermidis; assay: In vitro antimicrobial activity against Staphylococcus epidermidis EPI1; type: functional

Row | SMILES | ED50 (Streptococcus pyogenes [1]) [mg/kg] | MIC (Streptococcus pyogenes [2]) [µg/mL] | MIC (Haemophilus influenzae) [µg/mL] | ED50 (Streptococcus pyogenes [3]) [mg/kg] | MIC (Streptococcus pneumoniae) [µg/mL] | MIC (Staphylococcus aureus) [µg/mL] | MIC (Enterococcus faecium) [µg/mL] | MIC [4] [µg/mL]
1 | CC[C@H]1OC(=O)C[C@@H](O)[C@H](C)[C@@H](O[C@@H]2O[C@H](C)[C@@H](O)[C@H](N(C)C)[C@H]2O)[C@@H](CCS(=O)(=O)c2ccc(C)cc2)C[C@@H](C)C(=O)/C=C/C(C)=C/[C@@H]1CO[C@@H]1O[C@H](C)[C@@H](O)[C@@H](OC)[C@H]1OC | > 50 | 1 (≈ 1.1 µM) | 16 (≈ 17.5 µM) | 4.2 | 1 (≈ 1.1 µM) | 0.25 (≈ 0.274 µM) | 8 (≈ 8.77 µM) | 0.25 (≈ 0.274 µM)
2 | CC[C@H]1OC(=O)C[C@@H](O)[C@H](C)[C@@H](O[C@@H]2O[C@H](C)[C@@H](O[C@H]3C[C@@](C)(O)[C@@H](O)[C@H](C)O3)[C@H](N(C)C)[C@H]2O)[C@@H](CCSc2nnnn2C)C[C@@H](C)C(=O)/C=C/C(C)=C/[C@@H]1CO[C@@H]1O[C@H](C)[C@@H](O)[C@@H](OC)[C@H]1OC | – | 1 (≈ 0.984 µM) | > 128 | > 6.3 | 32 (≈ 31.5 µM) | 0.5 (≈ 0.492 µM) | 128 (≈ 126 µM) | 1 (≈ 0.984 µM)
3 | CC[C@H]1OC(=O)C[C@@H](O)[C@H](C)[C@@H](O[C@@H]2O[C@H](C)[C@@H](O)[C@H](N(C)C)[C@H]2O)[C@@H](CC=O)C[C@@H](C)C(=O)/C=C/C(C)=C/[C@@H]1CO[C@@H]1O[C@H](C)[C@@H](O)[C@@H](O)[C@H]1OC | 81 | 0.25 (≈ 0.33 µM) | 8 (≈ 10.6 µM) | 1.8 | 0.25 (≈ 0.33 µM) | 2 (≈ 2.64 µM) | 4 (≈ 5.28 µM) | 2 (≈ 2.64 µM)
4 | CC[C@H]1OC(=O)C[C@@H](O)[C@H](C)[C@@H](O[C@@H]2O[C@H](C)[C@@H](O)[C@H](N(C)C)[C@H]2O)[C@@H](CCOc2ccc(CN3CCCCCC3)cc2)C[C@@H](C)C(=O)/C=C/C(C)=C/[C@@H]1CO[C@@H]1O[C@H](C)[C@@H](O)[C@@H](OC)[C@H]1OC | 27 | 0.5 (≈ 0.52 µM) | 32 (≈ 33.3 µM) | 1.9 | 1 (≈ 1.04 µM) | 0.5 (≈ 0.52 µM) | 8 (≈ 8.32 µM) | 0.5 (≈ 0.52 µM)
5 | CC[C@H]1OC(=O)C[C@@H](O)[C@H](C)[C@@H](O[C@@H]2O[C@H](C)[C@@H](O)[C@H](N(C)C)[C@H]2O)[C@@H](CCOc2cc(Cl)cc(Cl)c2)C[C@@H](C)C(=O)/C=C/C(C)=C/[C@@H]1CO[C@@H]1O[C@H](C)[C@@H](O)[C@@H](OC)[C@H]1OC | 31 | 0.12 (≈ 0.131 µM) | 32 (≈ 34.8 µM) | > 10 | 1 (≈ 1.09 µM) | 0.25 (≈ 0.272 µM) | 4 (≈ 4.35 µM) | 0.25 (≈ 0.272 µM)
6 | CC[C@H]1OC(=O)C[C@@H](O)[C@H](C)[C@@H](O[C@@H]2O[C@H](C)[C@@H](O)[C@H](N(C)C)[C@H]2O)[C@@H](CCSc2nnnn2C)C[C@@H](C)C(=O)/C=C/C(C)=C/[C@@H]1CO[C@@H]1O[C@H](C)[C@@H](O)[C@@H](OC)[C@H]1OC | 50 | 0.25 (≈ 0.287 µM) | – | – | 2 (≈ 2.29 µM) | 0.5 (≈ 0.573 µM) | 16 (≈ 18.3 µM) | 0.25 (≈ 0.287 µM)
7 | CC[C@H]1OC(=O)C[C@@H](O)[C@H](C)[C@@H](O[C@@H]2O[C@H](C)[C@@H](O)[C@H](N(C)C)[C@H]2O)[C@@H](CCOc2ccc([N+](=O)[O-])cc2)C[C@@H](C)C(=O)/C=C/C(C)=C/[C@@H]1CO[C@@H]1O[C@H](C)[C@@H](O)[C@@H](OC)[C@H]1OC | 5 | 1 (≈ 1.12 µM) | 16 (≈ 17.9 µM) | – | 1 (≈ 1.12 µM) | 0.5 (≈ 0.559 µM) | 4 (≈ 4.47 µM) | 0.5 (≈ 0.559 µM)
8 | CC[C@H]1OC(=O)C[C@@H](O)[C@H](C)[C@@H](O[C@@H]2O[C@H](C)[C@@H](O[C@H]3C[C@@](C)(O)[C@@H](O)[C@H](C)O3)[C@H](N(C)C)[C@H]2O)[C@@H](CCOc2ccccc2)C[C@@H](C)C(=O)/C=C/C(C)=C/[C@@H]1CO[C@@H]1O[C@H](C)[C@@H](O)[C@@H](O)[C@H]1OC | 91 | 4 (≈ 4.08 µM) | > 128 | > 10 | 32 (≈ 32.6 µM) | 2 (≈ 2.04 µM) | > 128 | 2 (≈ 2.04 µM)
9 | CCOC(=O)NN(CC[C@H]1C[C@@H](C)C(=O)/C=C/C(C)=C/[C@H](CO[C@@H]2O[C@H](C)[C@@H](O)[C@@H](OC)[C@H]2OC)[C@@H](CC)OC(=O)C[C@@H](O)[C@H](C)[C@H]1O[C@@H]1O[C@H](C)[C@@H](O)[C@H](N(C)C)[C@H]1O)C(=O)OCC | > 5 | 1 (≈ 1.07 µM) | 32 (≈ 34.3 µM) | 2.1 | 1 (≈ 1.07 µM) | 0.5 (≈ 0.536 µM) | 16 (≈ 17.2 µM) | 0.5 (≈ 0.536 µM)
10 | CC[C@H]1OC(=O)C[C@@H](O)[C@H](C)[C@@H](O[C@@H]2O[C@H](C)[C@@H](O)[C@H](N(C)C)[C@H]2O)[C@@H](CCBr)C[C@@H](C)C(=O)/C=C/C(C)=C/[C@@H]1CO[C@@H]1O[C@H](C)[C@@H](O)[C@@H](OC)[C@H]1OC | 19 | 0.12 (≈ 0.143 µM) | 16 (≈ 19.1 µM) | 4.5 | 2 (≈ 2.39 µM) | 0.25 (≈ 0.299 µM) | 8 (≈ 9.56 µM) | 0.25 (≈ 0.299 µM)
